How the values were obtained:
[1] = test system: HepG2 cells; assay: CellTiter-Glo cell viability in HepG2 cells; assay type: cell-based; conditions: HepG2, 10 μM, 48 hours
[2] = test system: Huh7 cells; assay: CellTiter-Glo cell viability in Huh7 cells; assay type: cell-based, human; conditions: Huh7, exposure to compound
Text: (§1) This enhanced caspase activity led to a reduced cell viability of ˜20% (CellTiter-Glo, Promega) (FIGS. 8A and B), exceeding previously reported reductions in cell viability due to lentiviral over-expression of miR-122 in HepG2 cells.^13 An increased caspase 3/7 level is observed in HepG2 cells due to activation of the pro-apoptic miR-122 (FIG. 8A). This increase is more pronounced in HepG2 than Huh7 cells, due to the different basal miR-122 levels in both cell lines. […] Thus, a small molecule activator of miR-122, like compound 3, has therapeutic relevance towards the selective treatment of HCC.
HepG2 and Huh7 cells were passaged into a 96-well plate and grown to 60% confluency. The media was then removed and replaced with standard growth media supplemented with increasing concentrations of the miR-122 small molecule modifiers (0-20 μM; 1% final DMSO concentration) and incubated for 48 hours at 37° C. Cellular viability was then assessed using a Cell-Titer Glo Assay (Promega) according to the manufacturers directions and luminescence was measured using a Wallac VICTOR^3V luminometer with a measurement time of 1 s and a delay time of 2 s.

[3] = test system: miR-122; assay: quantitative RT PCR of mature miR-122 in Huh7 cells; assay type: cell-based, human; conditions: Huh7, 10 μM, 48 hours
Method: The activity of the small molecule modifiers was analyzed by quantitative RT PCR in order to measure their direct effects on miR-122 expression levels in Huh7 cells. […] All experiments were conducted in triplicate, and the data was normalized to a DMSO control.
Each treatment was conducted in triplicate to ensure statistical validity. Cells were then incubated at 37° C. for 48 hours (DMEM, 5% CO2). The media was removed, and cells were washed with PBS buffer (2×2 mL, pH 7.4) followed by RNA isolation with the mirPremier™ microRNA Isolation Kit (Aldrich). The RNA was quantified using a Nanodrop ND-1000 spectrophotometer and 10 ng of each RNA sample was reverse transcribed using the TaqMan™ microRNA Reverse Transcription Kit (Applied Biosystems) in conjunction with either the miR-122 or miR-21 TaqMan™ RT primer (16° C., 30 min; 42° C., 30 min; 85° C., 5 min). Quantitative Real Time PCR was conducted with a TaqMan™ 2× Universal PCR Master Mix and the appropriate TaqMan™ miRNA assay (Applied Biosystems) on a BioRad MyiQ RT-PCR thermocycler (1.3 μL RT PCR product; 95° C., 10 min; followed by 40 cycles of 95° C., 15 s; 60° C. 60 s). Threshold cycles were used to determine miRNA copy numbers, and the levels of miR-122 and miR-21 were compared via determination of threshold cycle (Ct) and conversion to copy number (copy number=10[(Ct−37.4)/−3.3]).^17 The data was then normalized to the DMSO control. The samples were also analyzed by real time PCR for the presence of pri-miR-122 transcript using the previously described primers (5′ […] 3′ (SEQ ID NO:5) and 5′ […] 3′ (SEQ ID NO:6); IDT DNA) and iQ SYBR Green Supermix for the real time PCR (95° C., 3 min; followed by 40 cycles of 95° C., 15 s; 60° C. 60 s).^14

[4] = test system: miR-122; assay: psiCHECK-miR122 dual luciferase reporter assay in Huh7 cells; assay type: cell-based, human
Text: A miRNA small molecule modifier screen for miR-122 was developed based on the psiCHECK-2 (Promega) reporter plasmid (FIG. 9). This construct expresses both Renilla luciferase as well as firefly luciferase, allowing for the normalization of the signal to account for differential cellular viability and variability in transfection efficiency. The miR-122 target sequence was inserted downstream of the Renilla luciferase gene, between the PmeI and SgfI restriction sites. In another aspect of the invention, plasmids expressing luciferase or another reporter gene such as for example, fluorescent reporters (GFP and variants thereof, DsRed, etc.) or beta-galactosidase can be used to screen for small molecule modifiers of miR-122. The mi-122 target sequence may be upstream or downstream of the reporter gene. Multiple miR-122 target sites can also be inserted into or be present in the plasmid.
The presence of mature miR-122 will lead to a decrease in the Renilla luciferase signal (FIG. 1a). The ability to detect endogenous miR-122 was validated by transfecting the generated psiCHECK-miR122 construct into Huh7 and HeLa cells. After 48 hour incubation, the cells were assayed using a Dual Luciferase Assay Kit (Promega). In another embodiment, the cells can be incubated for about 24-96 hours. The Dual Luciferase Assay Kit provides a means to measure the amount of the luciferases by generating a luminescent signal. Using this assay the luminescence from the firefly luciferase reaction may be quenched while the luminescent reaction of Renilla luciferase can be activated. Other assays and procedures that can determine the amount of the one or more reporter genes or miR-122 expression, activity or function can be used. An example of another assay is Dual-Glo Assay (Promega).
The psiCHECK-miR122 vector was then employed in a small molecule screen in Huh7 cells to discover modifiers of miR-122 function. Other cells that express miR-122 such as HepG2 and Hep3B can be used in addition to or instead of Huh7 cells. An increase in the relative Renilla luciferase signal indicates a miR-122 inhibitor, while a reduction in the luciferase signal indicates a miR-122 activator. A genus of compounds that may have activity as modifiers of miR122 function are the Diversity Set II (1364 compounds) from the NCI Developmental Therapeutics Program was screened using Huh7 cells containing the psiCHECK-miR122 reporter. Cells were exposed to the small molecules and the relative luciferase signal was measured after 48 hours using a Dual Luciferase Assay Kit (Promega). In another embodiment the cells can be exposed to the small molecules for about 24-96 hours. As explained above, other assays and procedures that can determine the amount of the one or more reporter genes or miR-122 expression, activity or function can be used.
The analogs were screened for activity using the previously described miR-122 assay. All cells were treated with 10 μM of a compound and experiments were performed in triplicate to ensure statistical validity. The data was normalized to a 1% DMSO control and is reported in relative luciferase units (RLU). The standard deviation was calculated from three independent assays. Some analogs of miR-122 inhibitor compound 1 are:
Huh7 and HeLa cells were transfected at approximately 60% confluency with either the psiCHECK-Control plasmid (the original psiCHECK-2 plasmid containing no known miRNA binding site) or the psiCHECK-miR122 plasmid (0.5 μg) using X-tremGENE transfection reagent (3:2 reagent/DNA ratio; Roche) in Opti-Mem media (Invitrogen). All transfections were performed in triplicate for statistical analysis. The cells were incubated at 37° C. for 4 hours followed by the replacement of transfection media with standard DMEM growth media. After 48 hours of incubation the media was removed, cells were lysed and assayed with a Dual Luciferase Assay Kit (Promega) using a Wallac VICTOR^3V luminometer with a measurement time of 1 s and a delay time of 2 s. […]

[5] = test system: miR-21; assay: miR-21 luciferase reporter assay in HeLa-miR-21-Luc cells; assay type: cell-based; conditions: 10 μM, 48 hours
Method: Using the previously described HeLa-miR-21-Luc cell line (a stably transfected line harboring a miR-21 binding sequence in the 3′ UTR of a firefly luciferase gene),(9) cells were grown to 80% confluency (DMEM) and treated with either DMSO, the previously reported miR-21 inhibitor, or compounds 1 and 2 at 10 μM (1% DMSO final concentration). The cells were incubated for 48 hours at 37° C. (5% CO2) and then assayed with a Bright-Glo Luciferase Kit (Promega) and analyzed using a Wallac VICTOR^3V luminometer with a measurement time of 1 s and a delay time of 2 s (FIG. 4).

[6] = test system: caspase-3 and -7; assay: Caspase-Glo 3/7 assay in HepG2 cells; assay type: cell-based; conditions: HepG2, 10 μM, 48 hours
Text: as §1
Both HepG2 and Huh7 cells were passaged into a 96-well plate and grown to 70% confluency. The media was then removed and replaced with standard growth media supplemented with 3 (10 μM) or a DMSO control (1% final DMSO concentration in all wells) and incubated for 48 hours at 37° C. All incubations were conducted in triplicate to ensure statistical validity. The media was removed and cells were assayed with the Caspase-Glo 3/7 (Promega) kit according to the manufacturers directions and luminescence was measured using a Wallac VICTOR^3V luminometer with a measurement time of 1 s and a delay time of 2 s.

SMILES: CN(C)CCN1C(=O)c2cccc3cc(N)cc(c23)C1=O [Compound 3]
- reduced cell viability [1]: ~20%
- cell viability (in words) [2]: only slightly affected
- increase in miR-122 expression levels [3]: 438%
- IC50 ([4]; Homo sapiens, Huh-7, Huh7, calculated from FIG. 5, read-out: IC50 (miR-122 activator, luciferase dose response)): 370 ± 20 nM
- reduction of the Renilla luciferase signal ([4]; Huh7, psiCHECK-miR122, 10 μM): 7 fold
- relative luciferase units (RLU) normalized to a DMSO control ([4]; Huh7, psiCHECK-miR122, 10 μM, mean ± SD of three independent assays): 0.11±0.02 RLU
- activity in miRNA-21 reporter (luciferase signal) [5]: No effect
- increase in the activity of caspase-3 and -7 [6]: ~20 fold
